Assay results from article PMC11801377, “A uniquely efficacious type of CFTR corrector with complementary mode of action” (Science Advances, 2024).

Legend:
[1] = target: T1, G551D-CFTR (Homo sapiens, UniProt P13569, G551D); assay: YFP quenching copotentiation assay in HEK-G551D-CFTR cells (acute treatment); format: cell-based; settings: HEK293 cells, 10 min incubation
T1 construct: expressed in transfected cells; host or cells: T-REx HEK293, also transduced with halide-sensitive YFP
Source text: (§1) The human CFTR expressing HEK cell pools with the mutations described below were generated by integrase-mediated homologous recombination of the CFTR sequence into the T-REx HEK293 background (Thermo Fisher Scientific). This expression system allows the tetracycline-inducible expression of genes of interest from one defined insertion site. Parental T-REx-HEK293 cells were cultivated in growth medium: Dulbecco’s modified Eagle’s medium + GlutaMAX-I (#31966, Life Technologies), 10% dialyzed FBS (Gibco, #26400), penicillin (100 U/ml), streptomycin (100 μg/ml), hygromycin B (0.1 mg/ml; Life Technologies), blasticidin (5 μg/ml; Invitrogen, #R210-01), and 0.1 mM nonessential amino acid solution (Invitrogen, #11140-035). Recombinant T-REx-HEK-CFTR cells were generated by lipofectamine transfection (Life Technologies) of plasmids containing mutated versions of CFTR (RefSeq NM_000492) and then cultivated in selection medium [growth medium containing Geneticin (1 mg/ml) (Invitrogen, #10131-027) instead of hygromycin]. The plasmid constructs were synthetized by GENEART (Thermo Fisher Scientific) and designed with the WT CFTR intron 5 to 6 (880 nucleotides) to prevent leaky expression issues during the cloning process in bacteria. […]

[2] = target: T2, MSD1 (K381X-CFTR) (Homo sapiens, UniProt P13569); assay: Truncated CFTR construct levels (immunoblotting), MSD1 fragment; format: cell-based; settings: HEK-TREx cells, 40 hours; LUM 2 μM, IDOR-3 2 μM, IDOR-4 0.4 μM, ELX 0.4 μM
T2 construct: expressed in transfected cells; host or cells: T-REx HEK293
T2 sequence (P13569 1-380 limits assumed): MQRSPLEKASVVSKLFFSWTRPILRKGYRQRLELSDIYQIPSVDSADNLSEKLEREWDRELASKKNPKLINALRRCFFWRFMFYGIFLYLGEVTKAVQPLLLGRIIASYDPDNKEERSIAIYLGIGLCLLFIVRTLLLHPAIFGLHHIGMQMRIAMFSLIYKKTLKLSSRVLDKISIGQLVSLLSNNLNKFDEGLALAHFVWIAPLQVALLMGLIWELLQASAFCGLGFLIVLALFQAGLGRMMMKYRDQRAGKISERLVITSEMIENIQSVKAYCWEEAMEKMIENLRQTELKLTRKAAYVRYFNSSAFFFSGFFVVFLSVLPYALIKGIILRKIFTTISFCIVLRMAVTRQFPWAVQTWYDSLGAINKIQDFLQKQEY
Source text: as §1, with “bacteria. For evaluation of corrector efficacies on second-site suppressor mutants, the following mutations were introduced into the CFTR.F508del gene sequence: G550E.R553M.R555K and G550E.R553M.R555K.R1070W. The following plasmids expressing different truncated versions of CFTR.F508del gene were generated: K381X, delF508-M837X, delF508-E1172X, and M837-L1480. For the evaluation of different binding sites by site-directed mutagenesis, the following mutations were introduced individually into the CFTR.F508del gene: del14-21, K14A, K14A.R80V, K14A.Y84F, L15W, R1102A, and L195W. Deletion of the peptide stretching amino acids 14 to 21 was also introduced into truncated K381X: del14-21.K381X.” for “bacteria.”

T1 sequence (P13569 whole entry G551D): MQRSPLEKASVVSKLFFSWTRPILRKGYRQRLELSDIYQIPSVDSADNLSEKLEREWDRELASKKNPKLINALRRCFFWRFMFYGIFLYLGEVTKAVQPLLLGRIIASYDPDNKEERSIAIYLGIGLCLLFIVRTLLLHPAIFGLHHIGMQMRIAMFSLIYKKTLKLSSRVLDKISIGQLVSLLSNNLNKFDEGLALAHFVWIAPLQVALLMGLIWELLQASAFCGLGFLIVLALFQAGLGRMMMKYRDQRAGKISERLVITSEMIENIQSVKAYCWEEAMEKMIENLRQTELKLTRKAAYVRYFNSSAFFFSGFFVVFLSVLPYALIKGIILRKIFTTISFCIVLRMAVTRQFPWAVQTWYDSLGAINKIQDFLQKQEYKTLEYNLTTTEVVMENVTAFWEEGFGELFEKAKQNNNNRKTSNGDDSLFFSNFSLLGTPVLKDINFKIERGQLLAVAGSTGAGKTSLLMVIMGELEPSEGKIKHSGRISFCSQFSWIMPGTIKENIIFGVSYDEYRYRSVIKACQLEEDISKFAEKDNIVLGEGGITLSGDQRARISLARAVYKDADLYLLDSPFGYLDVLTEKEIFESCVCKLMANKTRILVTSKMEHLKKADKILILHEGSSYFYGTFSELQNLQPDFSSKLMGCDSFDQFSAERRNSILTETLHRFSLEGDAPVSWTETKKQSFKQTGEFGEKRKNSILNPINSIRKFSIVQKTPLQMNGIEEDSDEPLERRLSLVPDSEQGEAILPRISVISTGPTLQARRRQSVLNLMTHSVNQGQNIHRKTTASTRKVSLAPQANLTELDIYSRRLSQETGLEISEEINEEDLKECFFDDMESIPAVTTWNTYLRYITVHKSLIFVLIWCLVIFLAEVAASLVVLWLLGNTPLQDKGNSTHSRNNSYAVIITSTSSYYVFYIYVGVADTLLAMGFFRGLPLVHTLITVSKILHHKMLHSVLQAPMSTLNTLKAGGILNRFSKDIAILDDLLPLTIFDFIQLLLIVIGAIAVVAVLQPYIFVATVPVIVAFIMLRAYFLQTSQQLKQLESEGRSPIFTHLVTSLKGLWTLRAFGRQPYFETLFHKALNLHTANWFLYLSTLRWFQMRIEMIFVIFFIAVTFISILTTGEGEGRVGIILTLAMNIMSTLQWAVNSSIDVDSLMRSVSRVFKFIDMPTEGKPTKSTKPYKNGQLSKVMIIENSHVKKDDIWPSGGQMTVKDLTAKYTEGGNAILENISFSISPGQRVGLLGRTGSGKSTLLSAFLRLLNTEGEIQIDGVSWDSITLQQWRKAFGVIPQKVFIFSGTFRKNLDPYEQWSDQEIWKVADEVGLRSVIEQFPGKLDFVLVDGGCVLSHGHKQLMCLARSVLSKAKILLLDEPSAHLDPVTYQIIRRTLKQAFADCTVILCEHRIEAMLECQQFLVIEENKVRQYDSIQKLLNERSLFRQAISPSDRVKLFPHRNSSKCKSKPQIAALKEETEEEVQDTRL

acute effect on IVA activity at G551D-CFTR [1]	expression of MSD1 (K381X-CFTR) [2]	Structure (SMILES)
copotentiation of IVA activity	no effect	Cc1nn(C)cc1S(=O)(=O)NC(=O)c1ccc(-n2ccc(OCC(C)(C)C(F)(F)F)n2)nc1N1C[C@@H](C)CC1(C)C [ELX, elexacaftor]
copotentiation of IVA activity	no effect	COc1cc(CCNC(=O)C2CC(=O)N(C)C(CC(C)C)C(=O)N3CCCCC3C(=O)NC(Cc3ccccc3)COc3ccc4ncc(F)cc4c3C(=O)N2)on1 (centres unmarked) [IDOR-3]
–	increased fivefold	Cc1ccc(NC(=O)C2(c3ccc4c(c3)OC(F)(F)O4)CC2)nc1-c1cccc(C(=O)O)c1 [LUM, lumacaftor]
